Results: ChEMBL document CHEMBL1137632, “Galanin message-associated peptide suppresses growth and the budded-to-hyphal-form transition of Candida albicans” (2007)
Calls of active or inactive are those of the source.

What was measured:
[1] = tested on: Candida albicans; experiment: Antifungal activity against Candida albicans SC5314 assessed as inhibition of fungal transformation from budded-to-hyphal-form at 1 uM after 24 hrs by microscopy; format: functional, organism-based
[2] = tested on: Candida albicans; experiment: Antifungal activity against Candida albicans SC5314 assessed as inhibition of fungal transformation from budded-to-hyphal-form at 4 uM after 24 hrs by microscopy; format: functional, organism-based
[3] = tested on: Candida albicans; experiment: Antifungal activity against Candida albicans SC5314 assessed as inhibition of fungal transformation from budded-to-hyphal-form at 2 uM after 24 hrs by microscopy; format: functional, organism-based
[4] = tested on: Candida albicans; experiment: Antifungal activity against Candida albicans clinical isolates at 6.3 uM after 16 hrs by BacTiter-Glow assay; format: functional, organism-based
[5] = tested on: Candida albicans; experiment: Antifungal activity against Candida albicans SC5314 at 6.3 uM after 16 hrs by BacTiter-Glow assay; format: functional, organism-based
[6] = tested on: Candida albicans; experiment: Antifungal activity against Candida albicans K2 at 6.3 uM after 16 hrs by BacTiter-Glow assay; format: functional, organism-based
[7] = tested on: Candida albicans; experiment: Antifungal activity against Candida albicans CBS 5983 at 6.3 uM after 16 hrs by BacTiter-Glow assay; format: functional, organism-based
[8] = tested on: Candida albicans; experiment: Antifungal activity against Candida albicans K2 at 32 uM after 16 hrs by BacTiter-Glow assay; format: functional, organism-based
[9] = tested on: Candida albicans; experiment: Antifungal activity against Candida albicans SC5314 at 32 uM after 16 hrs by BacTiter-Glow assay; format: functional, organism-based
[10] = tested on: Candida albicans; experiment: Antifungal activity against Candida albicans CBS 5983 at 32 uM after 16 hrs by BacTiter-Glow assay; format: functional, organism-based
[11] = tested on: Candida albicans; experiment: Antifungal activity against Candida albicans clinical isolates at 32 uM after 16 hrs by BacTiter-Glow assay; format: functional, organism-based
[12] = tested on: Candida albicans; experiment: Antifungal activity against Candida albicans K2 at 4.3 uM after 16 hrs by BacTiter-Glow assay relative to untreated control; format: functional; details: pooled result: one value given for 4 cell lines, strains, targets or settings
[13] = tested on: Candida albicans; experiment: Antifungal activity against Candida albicans clinical isolates at 4.15 uM after 16 hrs by BacTiter-Glow assay relative to untreated control; format: functional
[14] = tested on: Candida albicans; experiment: Antifungal activity against Candida albicans SC5314 at 4.15 uM after 16 hrs by BacTiter-Glow assay relative to untreated control; format: functional
[15] = tested on: Candida albicans; experiment: Antifungal activity against Candida albicans K2 at 4.15 uM after 16 hrs by BacTiter-Glow assay relative to untreated control; format: functional
[16] = tested on: Candida albicans; experiment: Antifungal activity against Candida albicans CBS 5983 at 4.15 uM after 16 hrs by BacTiter-Glow assay relative to untreated control; format: functional
[17] = tested on: Candida albicans; experiment: Antifungal activity against Candida albicans SC5314 at 4.1 uM after 16 hrs by BacTiter-Glow assay; format: functional, organism-based
[18] = tested on: Candida albicans; experiment: Antifungal activity against Candida albicans CBS 5983 at 4.1 uM after 16 hrs by BacTiter-Glow assay; format: functional, organism-based
[19] = tested on: Candida albicans; experiment: Antifungal activity against Candida albicans clinical isolates at 4 uM after 16 hrs by BacTiter-Glow assay; format: functional, organism-based
[20] = tested on: Candida albicans; experiment: Antifungal activity against Candida albicans SC5314 at 4 uM after 16 hrs by BacTiter-Glow assay; format: functional, organism-based
[21] = tested on: Candida albicans; experiment: Antifungal activity against Candida albicans clinical isolates at 4.1 uM after 16 hrs by BacTiter-Glow assay; format: functional, organism-based
[22] = tested on: Candida albicans; experiment: Antifungal activity against Candida albicans CBS 5983 at 4 uM after 16 hrs by BacTiter-Glow assay; format: functional, organism-based
[23] = tested on: Candida albicans; experiment: Antifungal activity against Candida albicans K2 at 4.1 uM after 16 hrs by BacTiter-Glow assay; format: functional, organism-based
[24] = tested on: Candida albicans; experiment: Antifungal activity against Candida albicans K2 at 4 uM after 16 hrs by BacTiter-Glow assay; format: functional, organism-based
[25] = tested on: Candida albicans; experiment: Antifungal activity against Candida albicans K2 at 24.3 uM after 16 hrs by BacTiter-Glow assay; format: functional, organism-based
[26] = tested on: Candida albicans; experiment: Antifungal activity against Candida albicans CBS 5983 at 24.3 uM after 16 hrs by BacTiter-Glow assay; format: functional, organism-based
[27] = tested on: Candida albicans; experiment: Antifungal activity against Candida albicans clinical isolates at 24.3 uM after 16 hrs by BacTiter-Glow assay; format: functional, organism-based
[28] = tested on: Candida albicans; experiment: Antifungal activity against Candida albicans SC5314 at 24.3 uM after 16 hrs by BacTiter-Glow assay; format: functional, organism-based

Measured: Activity

CC[C@H](C)[C@H](NC(=O)[C@H](C)NC(=O)CNC(=O)[C@H](C)NC(=O)[C@H](CCC(=O)O)NC(=O)[C@H](CCCCN)NC(=O)[C@H](CC(C)C)NC(=O)[C@H](Cc1cnc[nH]1)NC(=O)[C@H](CC(C)C)NC(=O)[C@H](Cc1ccccc1)NC(=O)[C@H](CO)NC(=O)[C@H](CC(C)C)NC(=O)[C@H](Cc1ccccc1)NC(=O)[C@H](CCC(=O)O)NC(=O)[C@@H](NC(=O)[C@@H](NC(=O)[C@@H](NC(=O)[C@H](CCCNC(=N)N)NC(=O)[C@H](CCSC)NC(=O)[C@@H](NC(=O)[C@H](CC(N)=O)NC(=O)[C@H](CC(N)=O)NC(=O)[C@H](CCC(=O)O)NC(=O)[C@@H]1CCCN1C(=O)[C@@H](NC(=O)[C@H](CO)NC(=O)[C@H](CCCNC(=N)N)NC(=O)[C@H](CC(=O)O)NC(=O)[C@H](Cc1ccccc1)NC(=O)[C@H](CO)NC(=O)CNC(=O)[C@@H]1CCCN1C(=O)[C@H](CCCCN)NC(=O)[C@H](CCSC)NC(=O)[C@H](CC(=O)O)NC(=O)[C@H](CC(=O)O)NC(=O)[C@H](CCC(=O)O)NC(=O)[C@@H]1CCCN1C(=O)[C@H](CCCNC(=N)N)NC(=O)[C@H](CC(C)C)NC(=O)[C@@H](N)CCC(=O)O)[C@@H](C)CC)[C@@H](C)CC)[C@H](C)O)[C@@H](C)CC)[C@@H](C)CC)C(=O)O
active: [2] | [3]
inactive: [1]

CC[C@H](C)[C@H](NC(=O)[C@H](C)NC(=O)[C@H](Cc1c[nH]cn1)NC(=O)[C@@H]1CCCN1C(=O)CNC(=O)[C@H](CC(C)C)NC(=O)[C@H](CC(C)C)NC(=O)[C@H](Cc1ccc(O)cc1)NC(=O)CNC(=O)[C@H](C)NC(=O)[C@H](CO)NC(=O)[C@H](CC(N)=O)NC(=O)[C@H](CC(C)C)NC(=O)[C@@H](NC(=O)[C@H](Cc1c[nH]c2ccccc12)NC(=O)CN)[C@@H](C)O)C(=O)N[C@@H](CC(=O)O)C(=O)N[C@@H](CC(N)=O)C(=O)N[C@@H](Cc1c[nH]cn1)C(=O)N[C@@H](CCCNC(=N)N)C(=O)N[C@@H](CO)C(=O)N[C@@H](Cc1ccccc1)C(=O)N[C@@H](Cc1c[nH]cn1)C(=O)N[C@@H](CC(=O)O)C(=O)N[C@@H](CCCCN)C(=O)N[C@@H](Cc1ccc(O)cc1)C(=O)NCC(=O)N[C@@H](CC(C)C)C(=O)N[C@@H](C)C(N)=O
inactive: [4] | [5] | [6] | [7]

OC(Cn1cncn1)(Cn1cncn1)c1ccc(F)cc1F
active: [8] | [9] | [10] | [11]

H-ELRPEDDMKPGSFDRSIPENNIMRTIIEFLSFLHLKEAGAL-OH
48.7%: [12]

H-GIGKFLHSAGKFGKAFVGEIMKS-OH [MAGAININ I]
>90%: [13] | [14] | [15] | [16]

H-LQSEDKAIRTIMEFLAFLHLKEAGAL-OH
active: [17] | [18] | [19] | [20] | [2] | [21] | [22] | [23] | [24]

H-PENNIMRTIIEFLSFLHLKEAGAL-OH
inactive: [25] | [26] | [27] | [28]

H-SIPENNIMRTIIEFLSFLHLKEAGAL-OH
active: [17] | [18] | [19] | [20] | [2] | [3] | [21] | [22] | [23] | [24]
inactive: [1]
